Data on 3 compounds can be found in PMC6409085, “Three odorant-binding proteins are involved in the behavioral response of Sogatella furcifera to rice plant volatiles” (PeerJ, 2019).

Like-named read-outs stand apart in the source and are kept apart here.

The subject of experiment [1] is dsRNA treated S. furcifera adults. Put plainly: Y-tube olfactometer behavioral trials after RNAi. Format: in vivo, Sogatella furcifera. To be noted: for number of insects choosing hexane arm / number of insects choosing volatile arm / number of insects failed (no choice): odorant vs hexane. As to the method: To test the effect of the rice odorants on the behavior of S. furcifera adults, a glass Y-tube olfactometer (inner diameter 2.0 cm, stem 13 cm, arms 10 cm, angle of arms 60°) according to the previously described ([Wang et al., 2014b]) was employed. An airtight cubic box (70 by 45 by 30 cm) was used to position Y-tube, and the Y-tube was lighted by a 30-W filament lamp 25 cm above it. Air that filtered through activated charcoal and humidified with doubly distilled water was pumped in both arms at a flow rate of 300 mL/min. Two filter paper strips (10 by 1 cm) containing 100 µL odorant source (50 µL/L) and 100 µL control hexane were placed in two holding chambers in the front of the olfactometer, respectively. A S. furcifera adult (2 days after emergence, starved for 0.5 h) was randomly chosen and placed in the stem of the Y-tube. Each insect was given 10 min to choose between the two arms of the Y-tube, the choice was noted if the planthopper reached one-half of the arms’ lengths and stayed in the arm for more than 1 min. Besides, S. furcifera was considered as having no orientation preference. Forty-five individuals were used for each compound, each insect used only once. And the dual-choice experiment was done in an environmentally controlled room (25 ± 1 °C and 50% RH). A Chi-squared test was used to analyze the behavioral assay data by using SPSS19.0 (SPSS Inc., Chicago, IL, USA) software.
S. furcifera adults (one-day-old, CO2 anesthetized) were injected with dsRNA (50 nL/adult, 2,000 ng/µL) through the membrane between the meso- and meta-thoracic legs using a Nanoinjector (Drummond Scientific, Broomall, PA, USA). Five treatments including dsOBP2, dsOBP3, dsOBP11, dsEGFP and RNase-free water (Control) were set up. Each treatment consisted of 30 adults and the experiments were repeated three times. Ten individuals were collected from each replicate to determine the effects of RNAi by qPCR post 24 h of dsRNA injection (the timepoint with maximum RNAi efficiency after injection). Meanwhile, the behavioral responses of dsRNA treated adults for volatiles which binding well to OBP and attract or repel to S. furcifera were tested using a Y-tube olfactometer as described above.

Experiment [2] relates to S. furcifera adults. More on the design: method as in Wang et al., 2017. To be noted: previously reported, ref Wang et al., 2017, cited from earlier work.

`CC(=O)/C=C/C1=C(C)CCCC1(C)C` [β-Ionone]: the “behavioral response (in words)” value in experiment [1] (SfurOBP2 silenced adults) is “significantly reduced the number of adults that attracted”. For the same compound, in experiment [1] (dsOBP2 injected adults), the “number of insects choosing hexane arm” value turned out to be 14, the “number of insects choosing volatile arm” value is listed as 13 and the “number of insects failed (no choice)” value is on record as 15. For the same compound, in experiment [1] (dsOBP3 injected adults), the “number of insects choosing hexane arm” value came out at 9, the “number of insects choosing volatile arm” value amounted to 16 and the “number of insects failed (no choice)” value came to 15. For the same compound, in experiment [1] (dsOBP11 injected adults), the “number of insects choosing hexane arm” value is given as 8, the “number of insects choosing volatile arm” value is listed as 17 and the “number of insects failed (no choice)” value worked out at 16.

On to `C/C(=C\CO)CCC[C@H](C)CCC[C@H](C)CCCC(C)C` [plant alcohol], for which, in experiment [1] (dsOBP11 injected adults), the “behavioral response (in words)” value was “lost the activation that repel”, the “number of insects choosing hexane arm” value is reported as 17, the “number of insects choosing volatile arm” value is given as 19 and the “number of insects failed (no choice)” value was found to be 13. Besides, in experiment [2], the “behavioral response of S. furcifera (in words)” value is given as “significantly repellent effect”. Moreover, the “behavioral response of S. furcifera (in words)” value in experiment [2] (listed as Plant alcohol) is recorded as “strongly repellent”.

Take `C=C/C(C)=C/C/C=C(\C)CCC=C(C)C` [α-farnesene]: in experiment [1] (dsOBP3 injected adults), the “behavioral response (in words)” value is on record as “no longer attracted”, the “number of insects choosing hexane arm” value is on record as 11, the “number of insects choosing volatile arm” value was determined as 12 and the “number of insects failed (no choice)” value stood at 15.
